According to patent US20060252030A1, “Fabrication of carbohydrate chips by immobilizing unmodified carbohydrates on derivatized solid surfaces, and their uses” (priority 2005, published 2006):

Tests used:
ConA = ConA (Canavalia ensiformis, UniProt P02866); assay: Carbohydrate chip incubated with FITC-ConA, fluorescence scanner; format: binding; conditions: carbohydrate on aminooxy or hydrazide chip, FIG. 5(c)
Experimental: (§1) A solution (0.1 μl˜1 nl) of carbohydrates including mono-, di-, oligo- and polysaccharides in PBS buffer (pH 4.0-5.0) containing 30-50% glycerol is printed on the above-mentioned chip base by using a micropipette or microarrayer. In this process, the concentration of carbohydrates is preferably between 0.1 mM and 50 mM. After completion of printing, the chip is reacted at 40-60° C. for 8 hours or more, and then washed. Then, the chip is immersed in PBS buffer (pH 7.4) containing 0.1% Tween 20 and 1% BSA (bovine serum albumin) for 1 hour. The fabrication of carbohydrate chips is complete by washing the BSA-treated chip with buffer (pH 7.4) containing 0.1% Tween 20 three times for 15 minutes.
(§2) The fabricated carbohydrate chips are applied for studies on protein-carbohydrate interactions. For these studies, the carbohydrate chips are incubated with non-labeled or fluorophore-labeled proteins in buffer containing 0.1% Tween 20 for 1 hour. Proteins labeled by fluorescent dyes such as Cy3, Cy5 and FITC are commercially available, or can be prepared by reacting proteins with fluorescent dyes. Then, the protein-treated chips are washed with buffer containing 0.1% Tween 20 three times for 10 minutes in order to remove unbound proteins.
Carbohydrate chips are used for the rapid assessment of carbohydrate-protein interactions, which are involve in various biological processes and are of importance for the development of novel therapeutics, and for the fast diagnosis of carbohydrate-based diseases such as tumors and pathogens. For this purpose, each solution (sodium phosphate buffer containing 30% glycerol, pH 5.0) of twenty one of mono-, di-, oligo- and polysaccharides listed in Table 1 was printed on the solid support coated by aminooxy or hydrazide groups. […] According to the fluorescence intensity of the spots in chips after detecting with a fluorescence scanner, TV strongly is bound to N,N′-diacetylchitobiose (13), less strongly to GlcNAc (2) and sialyl Le^x (19), and weakly bound to GalNAc (5), LacNAc (15) and NeuNAcLacNAc (18) [see FIG. 5(a)].

[1] = system: Triticum vulgaris (Cy3-TV, also known as wheat germ agglutinin); assay: Carbohydrate chip incubated with Cy3-TV, fluorescence scanner; format: binding; conditions: carbohydrate on aminooxy or hydrazide chip, FIG. 5(a)
Experimental: as §1, §2
(§3) Carbohydrate chips are used for the rapid assessment of carbohydrate-protein interactions, which are involve in various biological processes and are of importance for the development of novel therapeutics, and for the fast diagnosis of carbohydrate-based diseases such as tumors and pathogens. For this purpose, each solution (sodium phosphate buffer containing 30% glycerol, pH 5.0) of twenty one of mono-, di-, oligo- and polysaccharides listed in Table 1 was printed on the solid support coated by aminooxy or hydrazide groups. The carbohydrate chips prepared from the method described in Example 3 were incubated with Cy3-TV, Cy5-AA and FITC-ConA. According to the fluorescence intensity of the spots in chips after detecting with a fluorescence scanner, TV strongly is bound to N,N′-diacetylchitobiose (13), less strongly to GlcNAc (2) and sialyl Le^x (19), and weakly bound to GalNAc (5), LacNAc (15) and NeuNAcLacNAc (18) [see FIG. 5(a)].

[2] = molecular target: T1, Aleuria aurantia (Cy5-AA) lectin (Aleuria aurantia, UniProt P18891); assay: Carbohydrate chip incubated with Cy5-AA, fluorescence scanner; format: binding; conditions: carbohydrate on aminooxy or hydrazide chip, FIG. 5(b)
T1 sequence (P18891 1-313): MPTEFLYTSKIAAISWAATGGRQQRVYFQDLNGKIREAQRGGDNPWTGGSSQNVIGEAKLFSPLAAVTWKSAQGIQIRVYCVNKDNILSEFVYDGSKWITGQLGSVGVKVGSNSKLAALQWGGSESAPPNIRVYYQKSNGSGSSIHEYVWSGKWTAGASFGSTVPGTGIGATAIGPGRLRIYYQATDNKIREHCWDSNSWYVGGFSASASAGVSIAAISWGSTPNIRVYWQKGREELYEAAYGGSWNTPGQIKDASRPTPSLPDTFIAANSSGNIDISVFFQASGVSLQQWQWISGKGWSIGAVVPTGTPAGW
Experimental: as §1, §2, §3

[3] = system: anti-sialyl Le^x antibody; assay: Carbohydrate chip incubated with anti-sialyl Le^x antibody, fluorescence image; format: binding; conditions: FIG. 5(d)
Experimental: as §1, §2
Sialyl Le^x is an important biological recognition marker and an interesting target for drug discovery. […]

[4] = system: E. coli ORN178, expressing mannose-binding adhesin on pili; assay: Carbohydrate chip probed with E. coli pre-incubated with propidium iodide; conditions: FIG. 5(e)
Experimental: FIG. 5 is a fluorescent image of carbohydrate chips composed of 21 carbohydrates probed with (a) Cy3-TV, (b) Cy5-AA, (c) FITC-ConA, (d) anti-Sialyl Le^x antibody and (e) E. Coli pre-incubated with propidium iodide (PI).
Many bacteria including pathogens express specific carbohydrate-binding proteins on pili. The initial attachment of pathogens to host cells through specific carbohydrate-protein interactions confers pathogenic properties. For example, a mannose-binding protein of type 1 fimbriated E. coli is known to cause common urinary tract infection through its binding to glycans on host cells (Connell, H. et al., Proc. Natl. Acad. Sci. USA 1996, 93, 9827). Thus, carbohydrate chips were also used to detect pathogens for diagnosis. E. coli ORN178, expressing mannose-binding adhesin on pili, binds to spots containing mannose, mannobiose and mannan [see FIG. 5(e)].

Compound	binding of TV to immobilized carbohydrate (fluorescence intensity of the spots) [1]	binding of AA to immobilized carbohydrate (fluorescence intensity of the spots) [2]	also measured
OC[C@H]1O[C@H](O[C@H]2[C@H](O)[C@@H](O)C(O)O[C@@H]2CO)[C@H](O)[C@@H](O)[C@@H]1O (mixture of isomers) [compound 11, Maltose]			binding of ConA to immobilized carbohydrate (fluorescence intensity of the spots) (ConA): very weak binding
CC(=O)N[C@H]1C(O)O[C@H](CO)[C@@H](O)[C@@H]1O (stereo partly shown) [compound 2, N-acetylglucosamine]	less strongly		
CC(=O)N[C@H]1C(O)O[C@H](CO)[C@H](O)[C@@H]1O (stereo partly shown) [compound 5, N-acetylgalactosamine]	weakly bound		
C[C@H](O)[C@@H](O)[C@@H](O)[C@H](O)C=O [compound 8, fucose]		strongly bound	
CC(=O)N[C@H]1[C@H](O[C@H]2[C@H](O)[C@@H](NC(C)=O)C(O)O[C@@H]2CO)O[C@H](CO)[C@@H](O)[C@@H]1O (stereo partly shown) [compound 13, N,N′-diacetylchitobiose]	strongly		
C[C@@H]1O[C@@H](O[C@H]2[C@H](O[C@@H]3O[C@H](CO)[C@H](O)[C@H](O)[C@H]3O)[C@@H](CO)OC(O)[C@@H]2O)[C@@H](O)[C@H](O)[C@@H]1O (stereo partly shown) [compound 17, Fucα1,3(Galβ1,4)Glc]		strongly bound	
CC(=O)N[C@H]1[C@H]([C@H](O)[C@H](O)CO)O[C@@](O[C@H]2[C@@H](O)[C@@H](CO)O[C@@H](O[C@H]3[C@H](O)[C@@H](NC(C)=O)C(O)O[C@@H]3CO)[C@@H]2O)(C(=O)O)C[C@@H]1O (stereo partly shown) [compound 18, NeuNAcα2,3Galβ1,4GlcNAc]	weakly bound		
CC(=O)N[C@H]1[C@H]([C@H](O)[C@H](O)CO)O[C@@](O[C@H]2[C@@H](O)[C@@H](CO)O[C@@H](O[C@H]3[C@H](O[C@@H]4O[C@@H](C)[C@@H](O)[C@@H](O)[C@@H]4O)[C@@H](NC(C)=O)C(O)O[C@@H]3CO)[C@@H]2O)(C(=O)O)C[C@@H]1O (stereo partly shown) [compound 19, Sialyl Le^x]	less strongly	very weakly bound	recognition by anti-sialyl Le^x antibody (fluorescence image of the chip) [3]: selectively recognized
CC(=O)N[C@H]1[C@H](O[C@H]2[C@@H](O)[C@@H](CO)O[C@@H](O[C@H]3[C@H](O)[C@@H](O)C(O)O[C@@H]3CO)[C@@H]2O)O[C@H](CO)[C@@H](O[C@@H]2O[C@@H](C)[C@@H](O)[C@@H](O)[C@@H]2O)[C@@H]1O[C@@H]1O[C@H](CO)[C@H](O)[C@H](O)[C@H]1O[C@@H]1O[C@@H](C)[C@@H](O)[C@@H](O)[C@@H]1O (stereo partly shown) [compound 20, Fucα1,2Galβ1,3(Fucα1,4)GlcNAcβ1,3Galβ1,4Glc]		strongly bound	
Galβ1,4GlcNac [compound 15]	weakly bound		
Mannan [compound 21]			binding of ConA to immobilized carbohydrate (fluorescence intensity of the spots) (ConA): strong binding; binding of E. coli ORN178 to carbohydrate spots [4]: binds
Manα1,6Man [compound 16]			binding of ConA to immobilized carbohydrate (fluorescence intensity of the spots) (ConA): less strong binding; binding of E. coli ORN178 to carbohydrate spots [4]: binds
